Test results: ChEMBL document CHEMBL1146305, “Synthesis of pyochelin-norfloxacin conjugates” (Bioorg Med Chem Lett, 2007)
Calls of active or inactive are those of the source. The calls are words filed in the database; no cut-off is given here.

System: Pseudomonas aeruginosa
Assay: Antibacterial activity against Pseudomonas aeruginosa PAO1
Assay type: functional, organism-based

**Q.** With `CCn1cc(C(=O)O)c(=O)c2cc(F)c(N3CCN(C(=O)OCOC(=O)CCC(=O)NCCCc4ccc(O)c(C5=NC(C6SCC(C(=O)O)N6C)CS5)c4)CC3)cc21` (configuration not stated) as the molecule, how does the Activity read?
**A.** Active

**Q.** Which Activity does the source give for `CCn1cc(C(=O)O)c(=O)c2cc(F)c(N3CCN(C(=O)OCOC(=O)CCC(=O)NCC#Cc4ccc(O)c(C5=NC(C6SCC(C(=O)O)N6C)CS5)c4)CC3)cc21` (configuration not stated) here?
**A.** Active
